Assay [1] has as its target T1, S7.1R (Dj-S7.1R) (Dugesia japonica, UniProt O15969).
T1 sequence (O15969 1-478): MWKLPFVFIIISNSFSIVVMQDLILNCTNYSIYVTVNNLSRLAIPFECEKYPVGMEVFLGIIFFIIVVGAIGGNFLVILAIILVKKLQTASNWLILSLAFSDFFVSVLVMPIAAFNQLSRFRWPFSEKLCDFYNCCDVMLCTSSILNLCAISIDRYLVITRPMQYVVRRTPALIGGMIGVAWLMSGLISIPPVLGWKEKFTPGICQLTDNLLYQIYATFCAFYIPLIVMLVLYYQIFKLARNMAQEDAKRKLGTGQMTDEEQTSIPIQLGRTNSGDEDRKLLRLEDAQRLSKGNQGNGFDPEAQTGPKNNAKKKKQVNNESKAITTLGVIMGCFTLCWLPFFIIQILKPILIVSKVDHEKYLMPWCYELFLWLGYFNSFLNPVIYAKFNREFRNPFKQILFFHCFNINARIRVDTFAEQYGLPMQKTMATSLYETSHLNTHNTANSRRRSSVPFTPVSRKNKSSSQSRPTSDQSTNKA
As to the kind of experiment: GloSensor cAMP luminescence in transfected HEK293 cells, peak amplitude. Format: cell-based.

In assay [2] the target is T1, S7.1R (Dj-S7.1R). The class given is cell-based.

Usually EC50 stands for the concentration that produces a half-maximal response. Higher therefore signals a need for much substance. In the case of `NCCc1c[nH]c2ccc(O)cc12` [5-HT], on S7.1R (Dj-S7.1R) [1], a half-maximal effect (EC50) was put at 0.082 ± 0.005 µM.
For orientation: IC50 means the concentration that gives 50% inhibition. Read a low IC50 as greater potency. Take `CC(C)C[C@H]1C(=O)N2CCC[C@H]2[C@]2(O)O[C@](NC(=O)[C@@H]3C=C4c5cccc6[nH]c(Br)c(c56)C[C@H]4N(C)C3)(C(C)C)C(=O)N12` [bromocriptine]: half-maximal inhibition at S7.1R (Dj-S7.1R) [2] (IC50) required 1.8 ± 0.5 µM.

(Values after publication PMC5196488 (International Journal for Parasitology: Drugs and Drug …, 2016).)
